Target: T1, MCR-1 (Homo sapiens, UniProt Q01726)
T1 construct: expressed in transfected cells; host or cells: HEK 293
Experiment: Melanocortin receptor binding assay, competition with 125I-HP 467, HEK 293 cells expressing hMCR-1
Conditions: for % Disp. MC-1 10 μM: displacement of 125I-HP 467 at 10 μM isoquinoline compound; for % Disp. of 125I-HP 467 (first of duplicate) / % Disp. of 125I-HP 467 (second of duplicate): 10 μM isoquinoline compound; for % Disp. of 125I-HP 467 (first of duplicate): HEK 293 cells expressing MCR-1, duplicate 1; for % Disp. of 125I-HP 467 (second of duplicate): HEK 293 cells expressing MCR-1, duplicate 2
Procedure, shortened: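 Test compounds compete on intact HEK 293 cells carrying hMCR-1 (2×10^4 per tube) or hMCR-4 (4×10^3 per tube), suspended in PBS, 10% calf serum, 1 mM CaCl2.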

T1 sequence (Q01726 whole entry): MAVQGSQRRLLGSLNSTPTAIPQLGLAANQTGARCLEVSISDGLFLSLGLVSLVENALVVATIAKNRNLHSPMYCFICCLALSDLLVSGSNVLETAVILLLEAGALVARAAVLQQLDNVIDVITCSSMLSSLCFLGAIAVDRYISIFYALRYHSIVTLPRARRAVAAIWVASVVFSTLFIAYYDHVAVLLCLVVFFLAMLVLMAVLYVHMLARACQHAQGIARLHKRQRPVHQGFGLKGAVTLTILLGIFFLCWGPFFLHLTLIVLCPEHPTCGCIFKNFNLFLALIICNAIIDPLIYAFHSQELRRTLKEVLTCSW

SMILES | % Disp. MC-1 10 μM (first of duplicate) [%] | % Disp. MC-1 10 μM (second of duplicate) [%] | % Disp. of 125I-HP 467 (first of duplicate) [%] | % Disp. of 125I-HP 467 (second of duplicate) [%]
CNC(CN)CN1Cc2ccccc2C(CNC2CCCCC2)C1c1c(F)cccc1Cl (stereo not drawn) [TRG 2405-104] | 32.8 | 33.3 | – | –
CNC(CN)CN1Cc2ccccc2C(CNC2CCCCC2)C1c1ccccc1CN (stereo not drawn) [TRG 2405-105] | 20.2 | 49.9 | – | –
CNC(CN)CN1Cc2ccccc2C(CNC2CCCCC2)C1c1ccccc1F (stereo not drawn) [TRG 2405-106] | 40.7 | 44.7 | – | –
CNC(CN)CN1Cc2ccccc2C(CNC2CCCCC2)C1c1ccco1 (stereo not drawn) [TRG 2405-107] | 43.1 | 52.1 | – | –
CNC(CN)CN1Cc2ccccc2C(CNC2CCCCC2)C1c1ncc[nH]1 (stereo not drawn) [TRG 2405-108] | 46 | 46.6 | – | –
CNC(CN)CN1Cc2ccccc2C(CNC2CCCCC2)C1c1ccccc1OC (stereo not drawn) [TRG 2405-109] | 34.7 | 44.7 | – | –
CNC(CN)CN1Cc2ccccc2C(CNC2CCCCC2)C1c1ccc2ccccc2c1 (stereo not drawn) [TRG 2405-110] | 59.5 | 61.6 | – | –
CNC(CN)CN1Cc2ccccc2C(CNC2CCCCC2)C1c1cccs1 (stereo not drawn) [TRG 2405-113] | 40 | 58.5 | – | –
CNC(CN)CN1Cc2ccccc2C(CNC2CCCCC2)C1c1ccc(Cl)c(Cl)c1 (stereo not drawn) [TRG 2405-116] | 62.3 | 63 | – | –
CNC(CN)CN1Cc2ccccc2C(CNC2CCCCC2)C1c1ccc(F)c(F)c1 (stereo not drawn) [TRG 2405-117] | 40.9 | 55.7 | – | –
CNC(CN)CN1Cc2ccccc2C(CNC2CCCCC2)C1c1cc(O)cc(O)c1 (stereo not drawn) [TRG 2405-119] | 25.9 | 39.8 | – | –
CNC(CN)CN1Cc2ccccc2C(CNC2CCCCC2)C1c1cc(OC)cc(OC)c1 (stereo not drawn) [TRG 2405-121] | 35.3 | 38.7 | – | –
CNC(CN)CN1Cc2ccccc2C(CNC2CCCCC2)C1c1cc(C)c(O)c(C)c1 (stereo not drawn) [TRG 2405-122] | 17.6 | 40.7 | – | –
CNC(CN)CN1Cc2ccccc2C(CNC2CCCCC2)C1c1cccc(Oc2ccc(Cl)c(Cl)c2)c1 (stereo not drawn) [TRG 2405-123] | 47.9 | 55.6 | – | –
CNC(CN)CN1Cc2ccccc2C(CNC2CCCCC2)C1c1cccc(C(F)(F)F)c1 (stereo not drawn) [TRG 2405-125] | 59.1 | 58.4 | – | –
CNC(CN)CN1Cc2ccccc2C(CNC2CCCCC2)C1c1cccc(Br)c1 (stereo not drawn) [TRG 2405-127] | 50.6 | 60.3 | – | –
CNC(CN)CN1Cc2ccccc2C(CNC2CCCCC2)C1c1cccc(CN)c1 (stereo not drawn) [TRG 2405-129] | 39.8 | 39.6 | – | –
CNC(CN)CN1Cc2ccccc2C(CNC2CCCCC2)C1c1ccc(OC)c(F)c1 (stereo not drawn) [TRG 2405-130] | 48.9 | 43.3 | – | –
CNC(CN)CN1Cc2ccccc2C(CNC2CCCCC2)C1c1cccc(F)c1 (stereo not drawn) [TRG 2405-131] | 39.2 | 55.7 | – | –
CNC(CN)CN1Cc2ccccc2C(CNC2CCCCC2)C1c1ccoc1 (stereo not drawn) [TRG 2405-132] | 51.6 | 51.7 | – | –
CNC(CN)CN1Cc2ccccc2C(CNC2CCCCC2)C1c1cccc(OC)c1 (stereo not drawn) [TRG 2405-135] | 43.9 | 39.7 | – | –
CNC(CN)CN1Cc2ccccc2C(CNC2CCCCC2)C1c1cccc(C)c1 (stereo not drawn) [TRG 2405-137] | 40.6 | 46 | – | –
CNC(CN)CN1Cc2ccccc2C(CNC2CCCCC2)C1c1cccc([N+](=O)[O-])c1 (stereo not drawn) [TRG 2405-139] | 40.3 | 45.5 | – | –
CNC(CN)CN1Cc2ccccc2C(CNC2CCCCC2)C1c1cccc(Oc2ccccc2)c1 (stereo not drawn) [TRG 2405-140] | 67.6 | 67.8 | – | –
CNC(CN)CN1Cc2ccccc2C(CNC2CCCCC2)C1c1cccnc1 (stereo not drawn) [TRG 2405-141] | 15 | 16.2 | – | –
CNC(CN)CN1Cc2ccccc2C(CNC2CCCCC2)C1c1cnc2ccccc2c1 (stereo not drawn) [TRG 2405-142] | 48.5 | 45.1 | – | –

SMILES | % Disp. MC-1 10 μM (first of duplicate) [%] | % Disp. MC-1 10 μM (second of duplicate) [%] | % Disp. of 125I-HP 467 (first of duplicate) [%] | % Disp. of 125I-HP 467 (second of duplicate) [%]
CNC(CN)CN1Cc2ccccc2C(CNC2CCCCC2)C1c1ccc(OCCCN(C)C)cc1 (stereo not drawn) [TRG 2405-144] | 29.6 | 41.7 | – | –
CNC(CN)CN1Cc2ccccc2C(CNC2CCCCC2)C1c1ccc(N(C)C)cc1 (stereo not drawn) [TRG 2405-145] | 41.2 | 49.7 | – | –
CNC(CN)CN1Cc2ccccc2C(CNC2CCCCC2)C1c1ccc(SC)cc1 (stereo not drawn) [TRG 2405-147] | 31.6 | 38.9 | – | –
CCNc1ccc(C2C(CNC3CCCCC3)c3ccccc3CN2CC(CN)NC)cc1 (stereo not drawn) [TRG 2405-149] | 30.1 | 52.3 | – | –
CNC(CN)CN1Cc2ccccc2C(CNC2CCCCC2)C1c1ccc(OC)cc1 (stereo not drawn) [TRG 2405-150] | 37.6 | 54.7 | – | –
CNC(CN)CN1Cc2ccccc2C(CNC2CCCCC2)C1c1ccc(-c2ccccc2)cc1 (stereo not drawn) [TRG 2405-151] | 61.5 | 57.6 | – | –
CNC(CN)CN1Cc2ccccc2C(CNC2CCCCC2)C1c1ccc(CN)cc1 (stereo not drawn) [TRG 2405-154] | 43.1 | 54.8 | – | –
CNC(CN)CN1Cc2ccccc2C(CNC2CCCCC2)C1c1ccc(F)cc1 (stereo not drawn) [TRG 2405-155] | 52.3 | 55.6 | – | –
CNC(CN)CN1Cc2ccccc2C(CNC2CCCCC2)C1c1ccc(C(C)C)cc1 (stereo not drawn) [TRG 2405-157] | 56.4 | 56.1 | – | –
CNC(CN)CN1Cc2ccccc2C(CNC2CCCCC2)C1c1ccc(OC)c2ccccc12 (stereo not drawn) [TRG 2405-158] | 45.6 | 45.8 | – | –
CNC(CN)CN1Cc2ccccc2C(CNC2CCCCC2)C1c1ccc(C)cc1 (stereo not drawn) [TRG 2405-159] | 51 | 53.5 | – | –
CNC(CN)CN1Cc2ccccc2C(CNC2CCCCC2)C1c1ccc(Oc2ccccc2)cc1 (stereo not drawn) [TRG 2405-162] | 71 | 59.6 | – | –
CCCOc1ccc(C2C(CNC3CCCCC3)c3ccccc3CN2CC(CN)NC)cc1 (stereo not drawn) [TRG 2405-163] | 62.4 | 58.1 | – | –
CNC(CN)CN1Cc2ccccc2C(CNC2CCCCC2)C1c1ccncc1 (stereo not drawn) [TRG 2405-164] | 24.7 | 33.5 | – | –
CNC(CN)CN1Cc2ccccc2C(CNC2CCCCC2)C1c1ccnc2ccccc12 (stereo not drawn) [TRG 2405-165] | 37.3 | 34.6 | – | –
CNC(CN)CN1Cc2ccccc2C(CNC2CCCCC2)C1c1ccc(C)s1 (stereo not drawn) [TRG 2405-168] | 44.9 | 24.1 | – | –
CNC(CN)CN1Cc2ccccc2C(CNC2CCCCC2)C1c1ccc(C)o1 (stereo not drawn) [TRG 2405-169] | 62.2 | 51.5 | – | –
CNC(CN)CN1Cc2ccccc2C(CNC2CCCCC2)C1c1cccc(C)n1 (stereo not drawn) [TRG 2405-171] | 63.1 | 49.7 | – | –
CNC(CN)CN1Cc2ccccc2C(CNC2CCCCC2)C1c1ccc2cccc(O)c2n1 (stereo not drawn) [TRG 2405-172] | – | – | 59.4 | 43.9
CCn1c2ccccc2c2cc(C3C(CNC4CCCCC4)c4ccccc4CN3CC(CN)NC)ccc21 (stereo not drawn) [TRG 2405-173] | – | – | 67 | 59.3
CNC(CN)CN1Cc2ccccc2C(CNC2CCCCC2)C1c1ccc[nH]1 (stereo not drawn) [TRG 2405-175] | – | – | 68.5 | 68.8
CNC(CN)CN1Cc2ccccc2C(CNC2CCCCC2)C1c1ccc(S(C)(=O)=O)cc1 (stereo not drawn) [TRG 2405-177] | – | – | 39 | 30.7
CNC(CN)CN1Cc2ccccc2C(CNC2CCCCC2)C1c1ccc(OC)c(S(=O)(=O)O)c1 (stereo not drawn) [TRG 2405-178] | – | – | 25 | 22.1
CNC(CN)CN1Cc2ccccc2C(CNC2CCCCC2)C1c1ccc(Br)o1 (stereo not drawn) [TRG 2405-179] | – | – | 61.1 | 56.8
CNC(CN)CN1Cc2ccccc2C(CNC2CCCCC2)C1c1nccs1 (stereo not drawn) [TRG 2405-180] | – | – | 72 | 64.6
